From patent US12552753B2, “Methods and compositions for targeting Tregs using CCR8 inhibitors” (Nanjing Immunophage Biomedical Co., Ltd., priority 2020, dated 2026)
Structures can show the parent of a compound that is named as a salt.

The molecules below were run against CCR8 (Homo sapiens, UniProt P51685) (assay: Tango assay (Tango-CCR8-Gal4-CHO-K1 cells, CCL1-stimulated, ONE-Glo luminescence)). Conditions: Tango Assay IC50, Inhibition of CCR8 Tango cell in vitro.
Chain of CCR8 (P51685 whole entry, the tested form may be a part): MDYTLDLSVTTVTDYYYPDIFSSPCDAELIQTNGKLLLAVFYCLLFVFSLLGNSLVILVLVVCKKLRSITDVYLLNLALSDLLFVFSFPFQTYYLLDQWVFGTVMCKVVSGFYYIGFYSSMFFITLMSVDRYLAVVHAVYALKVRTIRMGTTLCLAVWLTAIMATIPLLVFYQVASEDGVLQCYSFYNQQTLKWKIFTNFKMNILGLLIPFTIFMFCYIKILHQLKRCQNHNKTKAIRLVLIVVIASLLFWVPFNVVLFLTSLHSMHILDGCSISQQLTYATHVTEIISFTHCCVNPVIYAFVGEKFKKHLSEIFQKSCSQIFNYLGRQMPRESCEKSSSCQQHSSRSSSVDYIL

Compound	IC50 [nM]
Cc1ccccc1C(=O)Nc1ccc(S(=O)(=O)NC(C)C2CCCCCC2)c2ccccc12 (centres unmarked) [Compound 76, N-(4-(N-(1-cycloheptylethyl)sulfamo-yl)naphthalen-1-yl)-2-methylbenzamide]	1.8
Cc1ccccc1C(=O)Nc1ccc(S(=O)(=O)Nc2ccc3c(c2)N(CCN(C)C)CCO3)c2ccccc12 [Compound 23, N-(4-(N-(4-(2-(dimethylamino)ethyl)-3,4-dihydro-2H-benzo[b][1,4]oxazin-6-yl)sulfamoyl)naphthalen-1-yl)-2-methylbenzamide]	> 10000
Cc1ccccc1C(=O)Nc1ccc(S(=O)(=O)NC(C)C2CCCN(C(=O)[C@H](C)NC(=O)OC(C)(C)C)C2)c2ccccc12 (single isomer, unassigned) [Compound 157A]	> 10000
Cc1ccccc1C(=O)Nc1ccc(S(=O)(=O)N(C)c2ccc3c(c2)N(C(=O)CN(C)C)CC3)c2ccccc12 [Compound 38, N-(4-(N-(1-(2-(dimethylamino)acetyl)indolin-6-yl)-N-methylsulfamoyl)naph-thalen-1-yl)-2-methylbenzamide]	1680
CCCC(=O)N1CCC(NS(=O)(=O)c2ccc(-c3nc4ccccc4[nH]3)cc2)CC1 [Compound 106, 4-(1H-benzo[d]imidazol-2-yl)-N-(1-butyrylpiperidin-4-yl)benzenesulfonamide]	1140
CCCC(=O)N1CCC(CNS(=O)(=O)c2ccc(NC(=O)c3ccccc3C)c3ccccc23)C1 (centres unmarked) [Compound 15, N-(4-(N-((1-butyrylpyrrolidin-3-yl)methyl)sulfamoyl)naphthalen-1-yl)-2-methylbenzamide]	> 10000
Cc1ccccc1C(=O)Nc1ccc(S(=O)(=O)Nc2ccc3c(c2)C(N(C)C(=O)CN(C)C)CC3)c2ccccc12 (centres unmarked) [Compound 98, N-(4-(N-(3-(2-(dimethylamino)-N-methylacetamido)-2,3-dihydro-1H-inden-5-yl)sulfamoyl)naphthalen-1-yl)-2-methylbenzamide]	> 10000
Cc1cc(S(=O)(=O)N[C@H](C)C2CCN(C)CC2)ccc1NC(=O)C12CCC(CC1)CC2 [Compound 295, (R)-N-(2-methyl-4-(N-(1-(1-methylpiperidin-4-yl)ethyl)sulfamoyl)phenyl)bicyclo [2.2.2]oct-ane-1-carboxamide]	4.6
COC(=O)[C@H](NS(=O)(=O)c1ccc(NC(=O)c2ccccc2C)c2ccccc12)C1CCCCC1 [Compound 50, (R)-methyl 2-cyclohexyl-2-(4-(2-methylbenzamido)naph-thalene-1-sulfonamido)acetate]	12
CCCN1CCN(c2cccc(C(=O)NS(=O)(=O)c3ccc(NC(=O)c4ccccc4C)c4ccccc34)c2)CC1 [Compound 11, 2-methyl-N-(4-(N-(3-(4-propylpiperazin-1-yl)benzoyl)sulfamoyl)naphthalen-1-yl)benzamide]	> 10000
Cc1ccccc1C(=O)Nc1ccc(S(=O)(=O)NC(C)C23CCN(CC2)CC3)c2ccccc12 (centres unmarked) [Compound 131, 2-methyl-N-(4-(N-(1-(quinuclidin-4-yl)ethyl)sulfamoyl)naphthalen-1-yl)benzamide]	303
Cc1ccccc1C(=O)Nc1ccc(S(=O)(=O)NC(C)C2CCCN(C(=O)CNC(=O)OC(C)(C)C)C2)c2ccccc12 (centres unmarked) [Compound 155D, tert-butyl (2-(3-(1-(4-(2-methylbenzamido)naph-thalene-1-sulfonamido)ethyl)piper-idin-1-yl)-2-oxoethyl)carbamate]	> 10000
Cc1ccccc1C(=O)Nc1ccc(S(=O)(=O)N[C@H](C)C2CCN(C(=O)OC(C)(C)C)CC2)cc1C#N [Compound 193, (R)-tert-butyl 4-(1-(3-cyano-4-(2-methylbenzamido)phenylsulfonamido)ethyl) piperidine-1-carboxylate]	> 10000
Cc1ccccc1C(=O)Nc1ccc(S(=O)(=O)N[C@H](C)C2CCN(C(=O)OC(C)(C)C)CC2)cc1C(F)(F)F [Compound 185, (R)-tert-butyl 4-(1-(4-(2-methylbenzamido)-3-(trifluoromethyl)phenyl-sulfonamido)ethyl)piper-idine-1-carboxylate]	673
Cc1ccccc1C(=O)Nc1ccc(S(=O)(=O)NC(C)C(=O)N2CCC(C)CC2)c2ccccc12 (centres unmarked) [Compound 83, 2-methyl-N-(4-(N-(1-(4-methylpiperidin-1-yl)-1-oxopropan-2-yl)sulfamoyl)naphthalen-1-yl)benzamide]	> 10000
Cc1ccccc1C(=O)Nc1ccc(S(=O)(=O)N[C@H](C)C2CCNCC2)cc1C1CC1 [Compound 198, (R)-N-(2-cyclopropyl-4-(N-(1-(piperidin-4-yl)ethyl)sulfamoyl)phenyl)-2-methylbenzamide]	26
CC(NS(=O)(=O)c1ccc2[nH]c(=O)[nH]c(=O)c2c1)C1CC2CCC1CC2 (centres unmarked) [Compound 133, N-(1-(bicyclo[2.2.2]octan-2-yl)ethyl)-2,4-dioxo-1,2,3,4-tetrahydroquinazoline-6-sulfonamide]	> 10000
Cc1ccccc1C(=O)Nc1ccc(S(=O)(=O)NCc2cccc(N(C)C)c2)c2ccccc12 [Compound 25, N-(4-(N-(3-(dimethylamino)benzyl)sulfamoyl)naphthalen-1-yl)-2-methylbenzamide]	1040
CC(NS(=O)(=O)c1ccc2[nH]ncc2c1)C1CCCCC1 (centres unmarked) [Compound 79, N-(1-cyclohexylethyl)-1H-indazole-5-sulfonamide]	> 1000

Other lines, results leading:

IC50 [nM]	Compound
96	Cc1cc(S(=O)(=O)N[C@H](C)C2CCNCC2)ccc1NC(=O)c1ccsc1 [Compound 211A, (R)-N-(2-methyl-4-(N-(1-(piperidin-4-yl)ethyl)sulfamoyl)phenyl)thiophene-3-carboxamide hydrochloride]
> 10000	CC(=O)Nc1cc(C)c(S(=O)(=O)N[C@H](C)C2CCNCC2)cc1C [Compound 172A, (R)-N-(2,5-dimethyl-4-(N-(1-(piperidin-4-yl)ethyl)sulfamoyl)phen-yl)acetamide hydrochloride]
282	Cc1ccccc1C(=O)Nc1cc(F)c(S(=O)(=O)N[C@@H](C)C2CCN(C)CC2)cc1Cl [Compound 263A, (S)-N-(2-chloro-5-fluoro-4-(N-(1-(1-methylpiperidin-4-yl)ethyl)sulfamoyl)phenyl)-2-methylbenzamide hydrochloride]
1	Cc1cc(S(=O)(=O)N[C@H](C)C2CCN(C)CC2)ccc1NC(=O)c1ccc(Cl)cc1C [Compound 273A, (R)-4-chloro-2-methyl-N-(2-methyl-4-(N-(1-(1-methylpiperidin-4-yl)ethyl)sulfamoyl)phenyl) benzamide hydrochloride]
> 100000	COC(=O)C(NS(=O)(=O)c1ccc(NC(=O)c2ccccc2C)c(C)c1)C1CCNCC1 (centres unmarked) [Compound 240A, methyl 2-((3-methyl-4-(2-methylbenzamido)phen-yl)sulfonamido)-2-(piperidin-4-yl)acetate hydrochloride]
851	Cc1cc(S(=O)(=O)N[C@H](C)C2CCNCC2)ccc1NC(=O)c1nccs1 [Compound 253A, (R)-N-(2-methyl-4-(N-(1-(piperidin-4-yl)ethyl)sulfamoyl)phenyl)thiazole-2-carboxamide hydrochloride]

Same assay, conditions: read-out: Tango Assay IC50, Inhibition of CCR8 Tango cell in vitro

IC50 [nM]	Compound
24	COC1CCC([C@@H](C)NS(=O)(=O)c2ccc(NC(=O)c3ccccc3C)c(C)c2)CC1 (single isomer, unassigned) [Compound 293A, N-(4-(N-(1-(4-methoxycyclohexyl)ethyl)sulfamoyl)-2-methylphenyl)-2-methylbenzamide]
